Here are results for 1 compound from US12569467B2, “Small molecules that treat or prevent viral infections” (priority 2022, dated 2026).

The structures appear in SMILES notation.

One data set has as its system HEK293 cells. To be noted: PrestoBlue, various concentrations, within the indicated concentrations (FIG. 3E).
Another data set deals with SARS-CoV2 spike protein (Severe acute respiratory syndrome coronavirus 2, UniProt P0DTC2). It is filed as binding.

Turning to `O=C1Nc2ccccc2/C1=C\c1ccc(-c2cc(C(F)(F)F)cc(C(F)(F)F)c2)o1` [CD04872SC, 3-({5-[3,5-di(trifluoromethyl)phenyl]-2-furyl}methylidene)indolin-2-one], in the data set on HEK293 cells, the cell cytotoxicity entry is given as “without major cell cytotoxicity”. For the same compound, the “difference of thermal stability (Tm) in presence versus absence of compound” value at SARS-CoV2 spike protein was “about 3 Celsius degrees”.
